# Experimental data: PMC7520961, “Safety evaluation of the interchangeable use of robenacoxib in commercially-available tablets and solution for injection in cats” (BMC Veterinary Research, 2020)
# Assays:
# cats [1] = experiment: Hematology, coagulation and urinalysis (target animal safety study); type: in vivo, cat; details: for Absolute Punctate Reticulocyte (mean ± SD) / Basophils (mean ± SD) / Other Cells (mean ± SD) / Monocytes (mean ± SD) / Eosinophils (mean ± SD) / Neutrophils (mean ± SD) / Lymphocytes (mean ± SD) / Erythrocytes (mean ± SD) / Leukocytes (mean ± SD) / Hemoglobin (mean ± SD) / Prothrombin Time (mean ± SD) / APTT (mean ± SD) / MCH (mean ± SD) / Absolute Aggregate Reticulocyte (mean ± SD) / Hematocrit (mean ± SD) / MCHC (mean ± SD) / MCV (mean ± SD) / Platelets (mean ± SD) / Fibrinogen (mean ± SD): post-treatment, average of days 13 and 37; for Basophils (mean ± SD): reference range 0 - 0.03; for Other Cells (mean ± SD): reference range 0 - 0.05; for Monocytes (mean ± SD): reference range 0 - 0.81; for Eosinophils (mean ± SD): reference range 0 - 1.31, significant treatment x sex effect (p<0.1); for Neutrophils (mean ± SD): reference range 0 - 12.65; for Lymphocytes (mean ± SD): reference range 2.18 - 13.48; for Erythrocytes (mean ± SD): reference range 5.36 - 10.78; for Leukocytes (mean ± SD): reference range 6.3 - 27.2; for Hemoglobin (mean ± SD): reference range 7.5 - 14.4; for Prothrombin Time (mean ± SD): reference range 8.7 - 11; for APTT (mean ± SD): reference range 11.2 - 18.7; for MCH (mean ± SD): reference range 11.9 - 15.1; for Absolute Aggregate Reticulocyte (mean ± SD): reference range 12.9 - 106.6; for Hematocrit (mean ± SD): reference range 22.5 - 41.6; for MCHC (mean ± SD): reference range 30.4 - 38; for MCV (mean ± SD): reference range 34.3 - 47.5; for Platelets (mean ± SD): reference range 107 - 779; for Fibrinogen (mean ± SD): reference range 152 - 278
# Procedure: Buccal mucosal bleeding times (BMBT) were measured on all animals on Days − 5 and 36 following ECG examinations while the animals were sedated. The upper lip was everted and a Surgicutt incision device was used to create a small incision (approximately 1 mm in depth and 3.5 mm in length). Blood flow from the incision site was blotted using filter paper below the incision. The elapsed time from the triggering of the device until blood no longer appeared on the filter paper was recorded as the bleed time. Clinical pathology evaluations were conducted on all animals on Days − 13 and − 6 and prior to dosing on Days 13 and 37. Because reference values given by the laboratory were (slightly) different for males and females, they were combined (i.e. lower of the two lower bounds to higher of the two upper bounds) for the tables. Animals were fasted 8–12 hours overnight prior to blood collection. Blood samples (3.0 mL) were collected from the jugular vein into tubes containing K3EDTA for evaluation of hematology parameters, sodium citrate for evaluation of coagulation parameters, and serum separators with no anticoagulant for the clinical chemistry samples. Urine samples were collected on Days […], 13, and 37 by replacing the litter in the litter box with NoSorb® (Creative Science, LLC, Ballwin, MO, USA) for at least 16 hours. Hematology variables were determined using an Advia 120 or Advia 2120 (Siemens, Munich, Germany), light microscope, or sediplast column (Polymedco, NY, US). Coagulation variables were determined using a Stago Compact (Diagnostica Stago, Parsippany, NJ, US), clinical chemistry variables were determined using an Olympus AU2700 or AU640e (Olympus Diagnostics, Southall, UK), and urinalysis variables were determined using a Clinitek-500 or Atlas (Siemens, Munich, Germany), Reichert VET 360 (Reichert Technologies, Buffalo, New York, USA), or light microscope.
# Post-treatment values were analyzed using RMANCOVA, with treatment group, sex, time, and their interactions as fixed model effects and the pre-treatment value measured closest to dosing as a covariate. Repeated measurements in the same animal were modeled using a compound symmetry or heterogeneous compound symmetry correlation structure (for food consumption: autoregressive first-order or heterogeneous autoregressive first-order); the model with the smallest Akaike’s Information Criterion was selected for each outcome.
# If any of the interactions involving treatment was significant (p < 0.1 for the two-factor interactions or p < 0.05 for the three-factor interaction), it was inappropriate to evaluate the main or overall treatment effect independently of the interacting factor and, as such, treatment comparisons were conducted for each level of the interacting factor. If none of the interactions involving treatment were significant, overall treatment differences were assessed.
# cats [2] = details: in vivo
# Procedure: Cageside observations were performed twice daily on all animals for morbidity, mortality, injury, and the availability of food and water. Detailed clinical observations were performed by trained technical staff twice per day beginning on Day − 2. Observations were at least six hours apart with the first occurring 1–2 hours after dose administration. Observations included, but were not limited to eyes, mucus membranes, respiratory system, circulatory system, autonomic and central nervous systems, somatomotor activity and behavior pattern. Body weight was measured on Day − 19 and weekly beginning Day − 14. Individual food consumption was measured daily beginning on Day − 7. Injection sites were evaluated for erythema, edema, heat, and pain response (i.e., vocalization upon palpation using a 3-point Likert scale) on each day of subcutaneous dosing prior to and 7 to 8 hours after dosing and once daily for three days following each dose administration. If any injection site was abnormal at the end of the observation period, additional assessments were carried out until the cat returned to normal or until end of the study.
# [3] = Dissolution of robenacoxib tablets with or without gelatin capsule; type: physicochemical; details: by 40 minutes; tablets whether or not encapsulated in gelatin capsules; data not shown
# [4] = tested on: healthy adult domestic short-hair cats; set-up: method as in ref 13 = [13]; 13. US Food and Drug Administration Freedom of Information Summary: Original New Animal Drug Application NADA 141–443 (Onsior Robenacoxib Injection Cats) 2015.; details: 10 mg/kg robenacoxib solution for injection for three consecutive days; cited from earlier work
# [5] = 1X (oral ≥2.4, SC 2.0 mg/kg/day)
# [6] = 2X (oral ≥4.8, SC 4.0 mg/kg/day)
# [7] = 3X (oral ≥7.2, SC 6.0 mg/kg/day)
structure (smiles),measurement,setting,value
CCc1ccc(Nc2c(F)c(F)cc(F)c2F)c(CC(=O)O)c1 [robenacoxib],Absolute Punctate Reticulocyte (mean ± SD),cats [1]; [5],2277 ± 658 10^3/µL
same,Basophils (mean ± SD),cats [1]; [5],0.006 ± 0.011 10^3/µL
same,Other Cells (mean ± SD),cats [1]; [5],0.62 ± 0.95 10^3/µL
same,Monocytes (mean ± SD),cats [1]; [5],0.27 ± 0.22 10^3/µL
same,Eosinophils (mean ± SD),cats [1]; [5],1.08 ± 0.40 10^3/µL
same,Neutrophils (mean ± SD),cats [1]; [5],5.28 ± 1.75 10^3/µL
same,Lymphocytes (mean ± SD),cats [1]; [5],6.69 ± 2.61 10^3/µL
same,Erythrocytes (mean ± SD),cats [1]; [5],7.24 ± 0.88 10^6/µL
same,Leukocytes (mean ± SD),cats [1]; [5],13.95 ± 4.43 10^3/µL
same,Hemoglobin (mean ± SD),cats [1]; [5],9.96 ± 0.98 g/dL
same,Prothrombin Time (mean ± SD),cats [1]; [5],11.03 ± 0.62 s
same,APTT (mean ± SD),cats [1]; [5],23.35 ± 16.35 s
same,MCH (mean ± SD),cats [1]; [5],13.82 ± 0.81 pg
same,Absolute Aggregate Reticulocyte (mean ± SD),cats [1]; [5],4.02 ± 4.81 10^3/µL
same,Hematocrit (mean ± SD),cats [1]; [5],30.66 ± 3.36%
same,MCHC (mean ± SD),cats [1]; [5],32.53 ± 0.55 g/dL
same,MCV (mean ± SD),cats [1]; [5],42.49 ± 2.78 fL
same,Platelets (mean ± SD),cats [1]; [5],253.7 ± 157.1 10^3/µL
same,Fibrinogen (mean ± SD),cats [1]; [5],180.8 ± 37.0 mg/dL
same,Absolute Punctate Reticulocyte (mean ± SD),cats [1]; [6],1915 ± 702 10^3/µL
same,Basophils (mean ± SD),cats [1]; [6],0.010 ± 0.011 10^3/µL
same,Other Cells (mean ± SD),cats [1]; [6],0.30 ± 0.71 10^3/µL
same,Monocytes (mean ± SD),cats [1]; [6],0.28 ± 0.14 10^3/µL
same,Eosinophils (mean ± SD),cats [1]; [6],0.94 ± 0.52 10^3/µL
same,Neutrophils (mean ± SD),cats [1]; [6],5.73 ± 1.34 10^3/µL
same,Lymphocytes (mean ± SD),cats [1]; [6],6.16 ± 1.81 10^3/µL
same,Erythrocytes (mean ± SD),cats [1]; [6],7.58 ± 0.82 10^6/µL
same,Leukocytes (mean ± SD),cats [1]; [6],13.43 ± 3.10 10^3/µL
same,Hemoglobin (mean ± SD),cats [1]; [6],9.99 ± 1.06 g/dL
same,Prothrombin Time (mean ± SD),cats [1]; [6],10.77 ± 0.56 s
same,APTT (mean ± SD),cats [1]; [6],16.68 ± 2.52 s
same,MCH (mean ± SD),cats [1]; [6],13.21 ± 0.99 pg
same,Absolute Aggregate Reticulocyte (mean ± SD),cats [1]; [6],1.38 ± 4.14 10^3/µL
same,Hematocrit (mean ± SD),cats [1]; [6],30.17 ± 3.65%
same,MCHC (mean ± SD),cats [1]; [6],33.14 ± 0.65 g/dL
same,MCV (mean ± SD),cats [1]; [6],39.86 ± 3.11 fL
same,Platelets (mean ± SD),cats [1]; [6],334.7 ± 155.9 10^3/µL
same,Fibrinogen (mean ± SD),cats [1]; [6],180.3 ± 22.2 mg/dL
same,Absolute Punctate Reticulocyte (mean ± SD),cats [1]; [7],2129 ± 555 10^3/µL
same,Basophils (mean ± SD),cats [1]; [7],0.006 ± 0.007 10^3/µL
same,Other Cells (mean ± SD),cats [1]; [7],0.44 ± 0.92 10^3/µL
same,Monocytes (mean ± SD),cats [1]; [7],0.26 ± 0.15 10^3/µL
same,Eosinophils (mean ± SD),cats [1]; [7],1.10 ± 0.40 10^3/µL
same,Neutrophils (mean ± SD),cats [1]; [7],5.46 ± 1.04 10^3/µL
same,Lymphocytes (mean ± SD),cats [1]; [7],7.50 ± 2.64 10^3/µL
same,Erythrocytes (mean ± SD),cats [1]; [7],7.73 ± 0.88 10^6/µL
same,Leukocytes (mean ± SD),cats [1]; [7],14.76 ± 3.66 10^3/µL
same,Hemoglobin (mean ± SD),cats [1]; [7],10.13 ± 1.15 g/dL
same,Prothrombin Time (mean ± SD),cats [1]; [7],10.84 ± 0.46 s
same,APTT (mean ± SD),cats [1]; [7],16.83 ± 2.52 s
same,MCH (mean ± SD),cats [1]; [7],13.11 ± 0.65 pg
same,Absolute Aggregate Reticulocyte (mean ± SD),cats [1]; [7],1.45 ± 4.17 10^3/µL
same,Hematocrit (mean ± SD),cats [1]; [7],30.90 ± 3.81%
same,MCHC (mean ± SD),cats [1]; [7],32.80 ± 1.57 g/dL
same,MCV (mean ± SD),cats [1]; [7],40.03 ± 2.65 fL
same,Platelets (mean ± SD),cats [1]; [7],301.4 ± 173.8 10^3/µL
same,Fibrinogen (mean ± SD),cats [1]; [7],172.5 ± 16.3 mg/dL
same,coagulation or urinalysis values between groups,cats [1]; all groups during the study,no significant differences
same,Emesis,cats [2],observed once on Days 36 and 37
same,duration of injection site edema post injection,cats [2],up to 120 hours
same,"injection site erythema, heat or pain",cats [2],no signs
same,time to resolution of injection site changes,cats [2],≤ 72 h
same,occurrence of injection site edema vs control animals,cats [2]; sc,significantly higher
same,robenacoxib dissolved,[3],approximately 93%
same,injection site observations,[4],"transient, fluid-filled, painless enlargements at the injection sites that disappeared over a period of 72 hours"
same,microscopic findings at injection sites,[4],minimal subcutaneous inflammatory cell infiltration
